Test results published in patent US5086067A, “LTB4 synthesis inhibitors” (G. D. Searle & Co., priority 1989, dated 1992).

Tests used:
[1] = tested on: LTB4 biosynthesis in HL-60 cells; assay: Assay for LTB4 production by HL-60 cells (LTB4 biosynthesis inhibition); assay type: cell-based; conditions: Homo sapiens; differentiated HL-60 cells, 10 min pre-incubation at 37° C., 5×10^-6 M A23187 for 5 minutes, radioimmunoassay; read-out: LTB4 Biosynthesis inhibition (HL60 cells) IC50
Description: HL-60 cells were induced to differentiate into granulocytes by a 4 day incubation with 0.8% (v/v) N,N-dimethyl formamide as disclosed in Fontana et al., Proc. Natl. Acad. Sci. 78 (6):3863-3866 (1981); Agins et al., Biochem. Biophys. Res. Comm. 126, 143-149 (1985); and Bonser et al., Biochemistry 20: 5297-5301 (1981). Prior to performing the assay, differentiated HL-60 cells were washed once with Hanks. balanced salt solution containing 0.35 mg/ml sodium bicarbonate and 10 mM HEPES pH 7.35 (HBSS). HL-60 cells (3×10^6 cells/ml) were pre-incubated with the compound tested or a control vehicle at 37° C. for 10 minutes, followed by 5 minute incubation with 5×10^-6 M calcium ionophore A23187 in a final volume of 1.0 ml. After incubation, the cells were pelleted by centrifugation and the LTB4 and PGE2 in the supernatant were quantified by radioimmunoassay. IC50 values (means +/- S.E.) for compounds herein that were tested are shown in the following Table and represent the concentrations of the compound required to inhibit 50% of LTB4 or PGE2 production by HL-60 cells stimulated with the calcium ionophore A23187.

[2] = target: T1, Human synovial fluid phospholipase A2 (HSF-PLA2) (Homo sapiens, UniProt P14555); assay: Human synovial fluid phospholipase A2 (HSF-PLA2) assay; assay type: biochemical; conditions: [14C]-oleate-labeled E. coli substrate, pH 7.0, 5 min pre-incubation, 37° C., 30 minutes
T1 construct: Human synovial fluid phospholipase A2 was purified approximately 5000 fold; from tissue; host or cells: human synovial fluid
T1 sequence (P14555 21-144): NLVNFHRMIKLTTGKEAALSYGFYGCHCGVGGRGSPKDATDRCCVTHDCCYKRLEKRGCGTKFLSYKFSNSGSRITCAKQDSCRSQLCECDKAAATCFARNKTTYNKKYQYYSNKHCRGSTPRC
Description: Human synovial fluid phospholipase A2 was purified approximately 5000 fold following the procedures of Franson et al., Lung 160, 275-284 (1982) and Fawzy et al., Bio Phys. J. 49, 533a (1986). Following purification the enzyme activity was measured by established methodology using [^14 C]-oleate-labeled, autoclaved E. coli as the substrate as also shown in the above noted references. The assay was performed in a final volume of […] containing 50 mM HEPES (pH 7.0), 150 mM NaCl, 5mM CaCl2, 7 mM [14C]-oleate-labeled E. coli phospholipid and with or without the compound from one of the examples herein undergoing an assay. The compound or control vehicle was pre-incubated with the PLA2 for 5 minutes followed by addition of the E. coli substrate to initiate the reaction. The reaction was maintained at 37° C. for 30 minutes and then terminated by the addition of 2 ml tetrahydrofuran (THF). The reaction product, [14C] -oleic acid, was extracted using a 1 ml Bond Elut NH2 Solid phase extraction column. The IC50 value for the compound (mean +/- S.E.) is given in the following Table and represents the concentration of the compound required to inhibit 50% of the PLA2 activity.

Row | SMILES | IC50 [1] [µM] | IC50 [2] [µM]
1 | CCCCCCCCCCCCCC#CC(=O)c1cccc(-c2nn[nH]n2)c1 [Example 30] | 0.9 | 11
2 | CCCCCCCCCCCCCC#CC(=O)c1ccc(C(=O)O)o1 [Example 12] | 0.5 | 34
3 | CCCCCCCCCCCCCC#CC(=O)c1cccc(C(=O)NS(=O)(=O)c2ccccc2)c1 [Example 27] |  | 14
4 | CCCCCCCCCCCCCC#CC(=O)c1ccc(C(=O)O)s1 [Example 25] | 0.4 | 15
5 | CCCCCC#CCCCCCCC#CC(O)c1cccc(C(=O)O)c1 (stereo not drawn) [Example 18] |  | 28
6 | CCCCCCCCCCCCCC#CC(=O)c1cccc(C(=O)O)n1 [Example 13] | 0.8 | 2.5
7 | CCCCCCCCCCCCC#CC(=O)c1ccc(C(=O)O)cc1 [Example 3] | 0.2 | 14
8 | CCCCCCCCCCCCCC#CC(O)c1cccc(-c2nn[nH]n2)c1 (stereo not drawn) [Example 29] |  | 42

Continued, values first:

Row | IC50 [1] [µM] | IC50 [2] [µM] | SMILES
9 | 0.9 | 18 | CCCCCCCCCCCCCC#CC(O)c1ccc(C(=O)O)s1 (stereo not drawn) [Example 24]
10 | 2.4 | 28 | CCCCCCCCCCCCCC#CC(O)c1ccc(C(=O)O)o1 (stereo not drawn) [Example 11]
11 |  | 13 | CCCCCCCCCCCCCC#CC(=O)c1ccccc1C(=O)O [Example 6]
12 | 8 | 11 | CCCCCCCCCCCCCC#CC(O)c1ccc(O)c(C(=O)O)c1 (stereo not drawn) [Example 16]
13 | 0.8 | 11 | CCCCCCCCCCCCCC#CC(=O)c1cccc(C(=O)O)c1 [Example 4]
14 | 0.4 | 33 | CCCCCCCCCCCCCC#CC(=O)c1ccc(O)c(C(=O)O)c1 [Example 17]
